In patent US20250332173A1, “COMPOUNDS AND METHODS FOR MODULATING NUCLEIC ACID SPLICING” (REMIX THERAPEUTICS INC., priority 2021, published 2025):
Like-named read-outs stand apart in the source and are kept apart here.

Experiments:
Assay type in all cases: cell-based, human
HTT mRNA = assay: RT-qPCR splicing assay, HTT canonical junction (CJ) and alternative junction (AJ) mRNA; conditions: Homo sapiens; for AC50: increase in HTT alternative junction (AJ) mRNA, read-out: HTT AJ AC50
Summary of the method: (§1)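 A673 cells (normalized to PPIA) or K562 cells (normalized to GAPDH or GUSB) were treated 24 h at 37 °C with an 11-point 3-fold dilution series, top 10 uM, DMSO ≤0.25%. Cell lysates went to one-step RT-qPCR measuring canonical- and alternative-junction MYB or HTT transcripts.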

MYB = assay: HiBiT protein abundance assay, MYB HiBiT K562 cell line; conditions: 24 hours, top dose 10 μM
Summary of the method: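 K562 knock-in lines with endogenous HiBiT-tagged target, 10,000 cells/well in IMDM + FBS, treated 24 h at 37° C with 10-point 3-fold dilutions (top 10 μM final; DMSO ≤0.25%). Lytic Nano-Glo HiBiT luminescence normalized to untagged K562 baseline and DMSO controls; IC50 = concentration giving 50% abundance via four-parameter fit.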

MYB mRNA = assay: RT-qPCR splicing assay, MYB canonical junction (CJ) and alternative junction (AJ) mRNA; conditions: Homo sapiens; for AC50: increase in MYB alternative junction (AJ) mRNA, read-out: MYB AJ AC50
Summary of the method: as §1

[1] = decrease in HTT canonical junction (CJ) mRNA, RT-qPCR, read-out: HTT CJ IC50
[2] = Table 5 panel, canonical junction qPCR, compound concentration having 50% response in CJ decrease, read-out: HTT IC50 (decrease in CJ mRNA levels)
[3] = HiBiT K562 cell line, read-out: Effect on protein abundance, MYB (IC50 category)
[4] = Table 5 panel, canonical junction qPCR, compound concentration having 50% response in CJ decrease, read-out: MYB IC50 (decrease in CJ mRNA levels)
[5] = decrease in MYB canonical junction (CJ) mRNA, RT-qPCR, read-out: MYB CJ IC50
[6] = canonical junction qPCR panel, Table 5, read-out: HTT (decrease in CJ mRNA levels, IC50)
[7] = canonical junction qPCR panel, Table 5, read-out: MYB (decrease in CJ mRNA levels, IC50)
[8] = HiBiT lytic detection, modified K562 cells, read-out: Effect on protein abundance, MYB (IC50)

SMILES | IC50 (HTT mRNA; [1]) | AC50 (HTT mRNA; RT-qPCR) | IC50 (HTT mRNA; [2]) | IC50 (MYB; [3]) | IC50 (MYB mRNA; [4]) | IC50 (MYB mRNA; [5]) | AC50 (MYB mRNA; RT-qPCR) | IC50 (HTT mRNA; [6]) | IC50 (MYB mRNA; [7]) | IC50 (MYB; [8])
CN1CCC(n2cnc3cc(-c4ccc5nn(C)cc5c4)ccc3c2=O)CC1 [Compound 208] | 1 to 10 µM | > 10 µM | > 10 µM | 1 to 10 µM | 1 to 10 µM | 1 to 10 µM | 1 to 10 µM |  |  | 
Cc1cn2cc(-c3cc(F)c4c(=O)n(C5CCNCC5)cnc4c3)cc(F)c2n1 [Compound 230] | < 0.1 µM | < 0.1 µM | < 0.1 µM | < 0.1 µM | < 0.1 µM | < 0.1 µM | < 0.1 µM |  |  | 
Cc1cn2cc(-c3ccc4c(c3)CCN(C3CCNCC3)C4=O)nc2c(C)n1 [Compound 221, 6-[6,8-dimethylimidazo[1,2-a]pyrazin-2-yl]-2-(piperidin-4-yl)-3,4-dihydroisoquinolin-1-one] | > 10 µM | > 10 µM | > 10 µM | > 10 µM | > 10 µM | > 10 µM | > 10 µM |  |  | 
Cc1c(O)c(-c2ncc3c(=O)n([C@@H]4CCN[C@@H](C)C4)ccc3n2)cc2cn(C)nc12 [Compound 1462, 2-(6-hydroxy-2,7-dimethyl-indazol-5-yl)-6-[(2S,4R)-2-methyl-4-piperidyl]pyrido[4,3-d]pyrimidin-5-one] | 0.1 to 1 µM | 0.1 to 1 µM |  | < 0.1 µM |  | < 0.1 µM | < 0.1 µM | 0.1 to 1 µM | < 0.1 µM | 
Cn1cc2cc(-c3ncc4c(=O)n(C56CCC(N)(CC5)C6)ccc4n3)c(O)c(F)c2n1 [Compound 1468] | 0.1 to 1 µM | 0.1 to 1 µM |  |  |  | < 0.1 µM | < 0.1 µM | 0.1 to 1 µM | < 0.1 µM | < 0.1 µM
Cc1cn2nc(-n3cnc4ccc(N5CCNCC5)cc4c3=O)cc(C)c2n1 [Compound 2201] | > 10 µM | > 10 µM |  |  |  | > 10 µM | > 10 µM | > 10 µM | > 10 µM | > 10 µM
Cc1cn2nc(-c3ccc4c(=O)n([C@H]5CC(C)N[C@@H](C)C5)ncc4n3)cc(C)c2n1 (stereo in doubt) [Compound 1538, 2-(2,8-dimethylimidazo[1,2-b]pyridazin-6-yl)-6-[(2S,6S)-2,6-dimethyl-4-piperidyl]pyrido[2,3-d]pyridazin-5-one] | 0.1 to 1 µM | 0.1 to 1 µM |  | 0.1 to 1 µM |  | 0.1 to 1 µM | 0.1 to 1 µM | 0.1 to 1 µM | 0.1 to 1 µM | 
Cc1cn2cc(-c3ccc4c(=O)n(C5CCNCC5)cnc4c3F)cc(F)c2n1 [Compound 210] | 1 to 10 µM | 1 to 10 µM | 1 to 10 µM | 1 to 10 µM | 1 to 10 µM | 1 to 10 µM | 1 to 10 µM |  |  | 
Cc1cc(-c2nc3cc(N4CCNCC4)ccc3c(=O)[nH]2)cc2cn(C)nc12 [Compound 2213] | > 10 µM | > 10 µM |  |  |  | > 10 µM | > 10 µM | > 10 µM | > 10 µM | > 10 µM
Cc1c(O)c(-c2ncc3c(=O)n([C@@H]4CC[C@@H](N)C4)ccc3n2)cc2cn(C)nc12 [Compound 1476, 6-[(1R,3R)-3-aminocyclopentyl]-2-(6-hydroxy-2,7-dimethyl-indazol-5-yl)pyrido[4,3-d]pyrimidin-5-one] | 1 to 10 µM | 0.1 to 1 µM |  |  |  | 0.1 to 1 µM | 0.1 to 1 µM | 0.1 to 1 µM | 0.1 to 1 µM | 0.1 to 1 µM
CN(c1ccc2ncn(-c3cc(F)c4nn(C)cc4c3)c(=O)c2c1)C1CCNCC1 [Compound 2198] | > 10 µM | > 10 µM |  |  |  | > 10 µM | > 10 µM | > 10 µM | > 10 µM | > 10 µM
Cc1cn2cc(-n3cnc4ccc(N5CCN(C)CC5)cc4c3=O)cc(F)c2n1 [Compound 2197] | 1 to 10 µM | 1 to 10 µM |  |  |  | 1 to 10 µM | 1 to 10 µM | 1 to 10 µM | 1 to 10 µM | 1 to 10 µM
Cc1cc(-c2cc(F)c3c(=O)n(C4CCN(C)CC4)cnc3c2)cc2cn(C)nc12 [Compound 233] | 0.1 to 1 µM | 0.1 to 1 µM | 0.1 to 1 µM | 0.1 to 1 µM | 0.1 to 1 µM | 0.1 to 1 µM | 0.1 to 1 µM |  |  | 
Cc1cc(-c2ccc3c(=O)[nH]c(N4CCNCC4)nc3c2)cc2cn(C)nc12 [Compound 2211] | > 10 µM | > 10 µM |  |  |  | > 10 µM | > 10 µM | > 10 µM | > 10 µM | > 10 µM
Cc1nc2c(F)cc(-c3ccc4c(c3)CCN(C3CCNCC3)C4=O)cc2o1 [Compound 215] | 1 to 10 µM | 1 to 10 µM | 1 to 10 µM | 0.1 to 1 µM | 1 to 10 µM | 1 to 10 µM | 1 to 10 µM |  |  | 
Cc1cn2cc(-n3cnc4cc(N5CCN(C)CC5)ccc4c3=O)cc(F)c2n1 [Compound 229] | > 10 µM | > 10 µM | > 10 µM | > 10 µM | > 10 µM | > 10 µM | > 10 µM |  |  | 
Cc1c(O)c(-c2ncc3c(=O)n([C@H]4CCNC5(CC5)C4)ccc3n2)cc2cn(C)nc12 [Compound 1512] | 0.1 to 1 µM | 0.1 to 1 µM |  |  |  | 0.1 to 1 µM | < 0.1 µM | 0.1 to 1 µM | < 0.1 µM | < 0.1 µM
Cc1cn2nc(-c3ccc4c(=O)n(C5CCN(CC6CC6)C6(CC6)C5)ncc4n3)cc(C)c2n1 (stereo not drawn) [Compound 1543, 6-[4-(cyclopropylmethyl)-4-azaspiro[2.5]octan-7-yl]-2-(2,8-dimethylimidazo[1,2-b]pyridazin-6-yl)pyrido[2,3-d]pyridazin-5-one] | < 0.1 µM | < 0.1 µM |  |  |  | 0.1 to 1 µM | 0.1 to 1 µM | < 0.1 µM | 0.1 to 1 µM | 0.1 to 1 µM
Cn1cc2cc(-c3ncc4c(=O)n(C56CCC(N)(CC5)C6)ccc4n3)c(O)cc2n1 [Compound 1470] | > 10 µM | 1 to 10 µM |  |  |  | 0.1 to 1 µM | 0.1 to 1 µM | 1 to 10 µM | 0.1 to 1 µM | 0.1 to 1 µM
Cc1cn2cc(-c3ccc4c(c3)CCN(C3CCNCC3)C4=O)cc(C)c2n1 [Compound 217, 6-[2,8-dimethylimidazo[1,2-a]pyridin-6-yl]-2-(piperidin-4-yl)-3,4-dihydroisoquinolin-1-one] | 1 to 10 µM | 1 to 10 µM | 1 to 10 µM | 0.1 to 1 µM | 1 to 10 µM | 1 to 10 µM | 1 to 10 µM |  |  | 
Cc1c(O)c(-c2ncc3c(=O)n([C@@H]4C[C@H]5COC[C@@H](C4)N5)ccc3n2)cc2cn(C)nc12 [Compound 1471] | 0.1 to 1 µM | 0.1 to 1 µM |  |  |  | < 0.1 µM | < 0.1 µM | 0.1 to 1 µM | < 0.1 µM | 0.1 to 1 µM
